In patent US9040663B2, “Melanocortin receptor-specific peptides” (AstraZeneca AB, priority 2009, dated 2015):
Where two headings read alike, the source gives them in different places. Positions of bridges follow the written chain, without caps; N, C: chain ends. Non-standard residues stand in square brackets, D forms with d. Residues, ends and D or L forms follow the SMILES beside them. dPhe(4-CN) = N#Cc1ccc(C[C@@H](N)C(=O)O)cc1; Orn = NCCC[C@H](N)C(=O)O

What was measured:
hMC4-R [1] = target: T1, hMC4-R (Homo sapiens (Human), UniProt P32245); test: Competitive inhibition binding assay using [I125]-NDP-α-MSH, hMC4-R; conditions: membranes of HEK-293 cells expressing recombinant hMC4-R, read-out: MC4-R Ki
Description: 7.1 Competitive Inhibition Assay using [I^125]-NDP-α-MSH.
A competitive inhibition binding assay was performed for exemplified peptides according to the invention using membrane homogenates prepared from HEK-293 cells that express recombinant hMC4-R, hMC3-R, or hMC5-R, and from B-16 mouse melanoma cells (containing endogenous MC1-R). In some instances, HEK-293 cells that express recombinant hMC1-R were employed. Assays were performed in 96 well GF/B Millipore multiscreen filtration plates (MAFB NOB10) pre-coated with 0.5% bovine serum albumin (Fraction V). Membrane homogenates were incubated with 0.2 nM (for hMC4-R) 0.4 nM (for MC3-R and MC5-R) or 0.1 nM (for mouse B16 MC1-R or hMC1-R) [I^125]-NDP-α-MSH (Perkin Elmer) and increasing concentrations of test peptides of the present invention in buffer containing 25 mM HEPES buffer (pH 7.5) with 100 mM NaCl, 2 mM CaCl2, 2 mM MgCl2, 0.3 mM 1,10-phenanthroline, and 0.2% bovine serum albumin. After incubation for 60 minutes at 37° C., the assay mixture was filtered and the membranes washed three times with ice-cold buffer. Filters were dried and counted in a gamma counter for bound radioactivity. […] Maximal specific binding (100%) was defined as the difference in radioactivity (cpm) bound to cell membranes in the absence and presence of 1 μM NDP-α-MSH. […] Each assay was conducted in triplicate and the actual mean values are described, with results less than 0% reported as 0%. Ki values for test peptides of the present invention were determined using Graph-Pad Prism® curve-fitting software.

hMC4-R [2] = target: T1, hMC4-R; test: High and low density hMC4-R functional assay (cAMP, HEK293-T-REx-MC4-R cells); type: cell-based; conditions: for Emax: NDP-α-MSH = 100%, read-out: Intrinsic Activity (%)
Description: The cells were then dispensed into 96-well plates (BD 353916) in 198 μL (about 5×10^4) cells/well and incubated for 10 minutes at 37° C. The compound to be tested was diluted with DMSO to a final concentration of 1 mM. […] 120 μL of the 1 mM compound stock was pipetted in the second column on the plate. […] All assay samples were run in duplicate (i.e. each sample was in two low dox and two high dox plates, respectively). The plates were gently shaken and incubated for 15 minutes at 37° C.

[3] = 0.1 ng/mL Doxycycline (low density hMC4-R system)
[4] = 10 ng/mL Doxycycline (high density hMC4-R system)

T1 sequence (P32245 whole entry): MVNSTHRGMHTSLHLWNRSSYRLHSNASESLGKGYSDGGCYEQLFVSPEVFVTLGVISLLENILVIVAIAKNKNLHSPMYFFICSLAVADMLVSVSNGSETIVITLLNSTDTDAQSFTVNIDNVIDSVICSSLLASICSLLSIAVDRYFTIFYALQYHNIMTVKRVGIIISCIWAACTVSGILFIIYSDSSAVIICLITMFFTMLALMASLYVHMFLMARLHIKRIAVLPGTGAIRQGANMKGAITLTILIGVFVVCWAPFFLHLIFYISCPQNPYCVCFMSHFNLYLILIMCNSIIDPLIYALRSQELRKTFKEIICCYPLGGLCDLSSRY

Compound	Ki (hMC4-R [1])	EC50 (hMC4-R [2]; [3])	Emax (hMC4-R [2]; [3])	EC50 (hMC4-R [2]; [4])	Emax (hMC4-R [2]; [4])
CC(=O)N[C@@H](CCCNC(=N)N)C(=O)N[C@H]1CCC(=O)NCCC[C@@H](C(N)=O)NC(=O)[C@H](Cc2c[nH]c3ccccc23)NC(=O)[C@H](CCCNC(=N)N)NC(=O)[C@@H](Cc2ccc(O)cc2)NC(=O)[C@H](CCN)NC1=O [Example 8, Ac-Arg-cyclo(Glu-Dab-D-Tyr-Arg-Trp-Orn)-NH2]	75 nM	48 nM	71%	0.55 nM	87%
CC(=O)N[C@@H](CCCNC(=N)N)C(=O)N[C@H]1CCC(=O)NCCC[C@@H](C(N)=O)NC(=O)[C@H](Cc2c[nH]c3ccccc23)NC(=O)[C@H](CCCNC(=N)N)NC(=O)[C@@H](Cc2ccccc2C#N)NC(=O)[C@H](CCN)NC1=O [Example 12, Ac-Arg-cyclo(Glu-Dab-D-Phe(2-CN)-Arg-Trp-Orn)-NH2]	45 nM	34 nM	64%	0.5 nM	97%
CC(=O)N[C@H](CCCNC(=N)N)C(=O)N[C@H]1CC(=O)NCCCC[C@@H](C(N)=O)NC(=O)[C@H](Cc2c[nH]c3ccccc23)NC(=O)[C@H](CCCNC(=N)N)NC(=O)[C@@H](Cc2ccc(C#N)cc2)NC(=O)[C@H](CCC(N)=O)NC1=O [Example 81, Ac-D-Arg-cyclo(Asp-Gln-D-Phe(4-CN)-Arg-Trp-Lys)-NH2]		4 nM	23%	0.45 nM	85%
CC(=O)N[C@@H](CCCNC(=N)N)C(=O)N[C@H]1CCC(=O)NCCC[C@@H](C(=O)O)NC(=O)[C@H](Cc2c[nH]c3ccccc23)NC(=O)[C@H](CCCNC(=N)N)NC(=O)[C@@H](Cc2ccc(C#N)cc2)NC(=O)[C@H](CC(N)=O)NC1=O [Example 85, Ac-Arg-cyclo(Glu-Asn-D-Phe(4-CN)-Arg-Trp-Orn)-OH]		15 nM	36%		94%
CC(=O)N[C@@H](CCCNC(=N)N)C(=O)N[C@H]1CCC(=O)NCCC[C@@H](C(N)=O)NC(=O)[C@H](Cc2c[nH]c3ccccc23)NC(=O)[C@H](CCCNC(=N)N)NC(=O)[C@@H](Cc2ccc(F)cc2)NC(=O)[C@@H]2CCCN2C1=O [Example 102, Ac-Arg-cyclo(Glu-Pro-D-Phe(4-F)-Arg-Trp-Orn)-OH]		18 nM			
CC(=O)N[C@@H](CCCNC(=N)N)C(=O)N[C@H]1CC(=O)NCCCC[C@@H](C(N)=O)NC(=O)[C@H](Cc2c[nH]c3ccccc23)NC(=O)[C@H](CCCNC(=N)N)NC(=O)[C@@H](Cc2ccccc2F)NC(=O)[C@@H]2CCCN2C1=O [Example 104, Ac-Arg-cyclo(Asp-Pro-D-Phe(2-F)-Arg-Trp-Lys)-NH2]			16%	10 nM	100%
CC(=O)N[C@@H](CCCNC(=N)N)C(=O)N[C@H]1CCC(=O)NCCC[C@@H](C(=O)O)NC(=O)[C@H](Cc2c[nH]c3ccccc23)NC(=O)[C@H](CCCNC(=N)N)NC(=O)[C@@H](Cc2ccc(C#N)cc2)NC(=O)[C@H](CCC(=O)O)NC1=O [Example 109, Ac-Arg-cyclo(Glu-Glu-D-Phe(4-CN)-Arg-Trp-Orn)-OH] (Ac-REE[dPhe(4-CN)]RW[Orn]-OH; lactam 2-7)			2%		69%

Further lines, results first:

Ki (hMC4-R [1])	EC50 (hMC4-R [2]; [3])	Emax (hMC4-R [2]; [3])	EC50 (hMC4-R [2]; [4])	Emax (hMC4-R [2]; [4])	Compound
0.75 nM	0.56 nM	36%	0.095 nM	99%	CC(=O)N[C@@H](CCCNC(=N)N)C(=O)N[C@H]1CCC(=O)NCCC[C@@H](C(N)=O)NC(=O)[C@H](Cc2c[nH]c3ccccc23)NC(=O)[C@H](CCCNC(=N)N)NC(=O)[C@@H](Cc2cccc(Cl)c2)NC(=O)[C@H](CCN)NC1=O [Example 2, Ac-Arg-cyclo(Glu-Dab-D-Phe(3-Cl)-Arg-Trp-Orn)-NH2]
0.833 nM	0.3 nM	48%	0.135 nM	100%	CC(=O)N[C@@H](CCCNC(=N)N)C(=O)N[C@H]1CCC(=O)NCCC[C@@H](C(N)=O)NC(=O)[C@H](Cc2c[nH]c3ccccc23)NC(=O)[C@H](CCCNC(=N)N)NC(=O)[C@@H](Cc2ccc(C#N)cc2)NC(=O)[C@H](CCN)NC1=O [Example 7, Ac-Arg-cyclo(Glu-Dab-D-Phe(4-CN)-Arg-Trp-Orn)-NH2]
0.7 nM	0.09 nM	91%	0.035 nM	89%	CC(=O)N[C@@H](CCCNC(=N)N)C(=O)N[C@H]1CCC(=O)NCCC[C@@H](C(N)=O)NC(=O)[C@H](Cc2c[nH]c3ccccc23)NC(=O)[C@H](CCCNC(=N)N)NC(=O)[C@@H](Cc2ccccc2F)NC(=O)[C@H](CCN)NC1=O [Example 9, Ac-Arg-cyclo(Glu-Dab-D-Phe(2-F)-Arg-Trp-Orn)-NH2]
0.95 nM	8 nM	16%	0.4 nM	93%	CC(=O)N[C@@H](CCCNC(=N)N)C(=O)N[C@H]1CCC(=O)NCCC[C@@H](C(N)=O)NC(=O)[C@H](Cc2c[nH]c3ccccc23)NC(=O)[C@H](CCCNC(=N)N)NC(=O)[C@@H](Cc2cccc(C(F)(F)F)c2)NC(=O)[C@H](CCN)NC1=O [Example 14, Ac-Arg-cyclo(Glu-Dab-D-Phe(3-CF3)-Arg-Trp-Orn)-NH2]
0.145 nM	0.165 nM	16%	0.2 nM	90%	CC(=O)N[C@@H](CCCNC(=N)N)C(=O)N[C@H]1CCC(=O)NCCC[C@@H](C(N)=O)NC(=O)[C@H](Cc2c[nH]c3ccccc23)NC(=O)[C@H](CCCNC(=N)N)NC(=O)[C@@H](Cc2ccc(C)cc2)NC(=O)[C@H](CCN)NC1=O [Example 15, Ac-Arg-cyclo(Glu-Dab-D-Phe(4-Me)-Arg-Trp-Orn)-NH2]
2 nM	0.95 nM	64%	0.12 nM	95%	CC(=O)N[C@@H](CCCNC(=N)N)C(=O)N[C@H]1CCC(=O)NCCC[C@@H](C(N)=O)NC(=O)[C@H](Cc2c[nH]c3ccccc23)NC(=O)[C@H](CCCNC(=N)N)NC(=O)[C@@H](Cc2cc(F)cc(F)c2)NC(=O)[C@H](CCN)NC1=O [Example 17, Ac-Arg-cyclo(Glu-Dab-D-Phe(3,5-diF)-Arg-Trp-Orn)-NH2]
		32%	0.09 nM	92%	CC(=O)N[C@@H](CCCNC(=N)N)C(=O)N[C@H]1CCCNC(=O)CC[C@@H](C(N)=O)NC(=O)[C@H](Cc2c[nH]c3ccccc23)NC(=O)[C@H](CCCNC(=N)N)NC(=O)[C@@H](Cc2ccc(C#N)cc2)NC(=O)[C@H](CCC(N)=O)NC1=O [Example 94, Ac-Arg-cyclo(Orn-Gln-D-Phe(4-CN)-Arg-Trp-Glu)-NH2]
		49%	0.1 nM	100%	CC(=O)N[C@@H](CCCNC(=N)N)C(=O)N[C@H]1CCC(=O)NCCC[C@@H](C(=O)O)NC(=O)[C@H](Cc2c[nH]c3ccccc23)NC(=O)[C@H](CCCNC(=N)N)NC(=O)[C@@H](Cc2cc(F)c(F)c(F)c2)NC(=O)[C@H](CCC(N)=O)NC1=O [Example 97, Ac-Arg-cyclo(Glu-Gln-D-Phe(3,4,5-triF)-Arg-Trp-Orn)-NH2]
	0.45 nM	47%	0.14 nM	100%	CC(=O)N[C@@H](CCCNC(=N)N)C(=O)N[C@H]1CCCNC(=O)CC[C@@H](C(N)=O)NC(=O)[C@H](Cc2c[nH]c3ccccc23)NC(=O)[C@H](CCCNC(=N)N)NC(=O)[C@@H](Cc2cc(F)c(F)c(F)c2)NC(=O)[C@H](CCC(N)=O)NC1=O [Example 98, Ac-Arg-cyclo(Orn-Gln-D-Phe(3,4,5-triF)-Arg-Trp-Glu)-NH2]
